In article PMC11545984, “1,3-Dipolar Cycloaddition of Nitrile Oxides and Nitrilimines to (−)-β-Caryophyllene: Stereoselective Synthesis of Polycyclic Derivatives and Their Biological Testing” (International Journal of Molecular Sciences, 2024):

Assays:
in vitro = conditions: dog
[1] = Initial cytotoxicity testing (MTT test), HEK293; type: cell-based, human; conditions: human healthy cells, MTT, 72 h, two concentrations 50–100 µM
Protocol: (§1) Colon cancer (HCT116, HT29), breast cancer (MCF7, SKBR3), melanoma (SK-MEL28), lung cancer (A549), prostate cancer (DU145), human normal cells (VA-13 and HEK293), and murine mammary cell lines (EMT6) were purchased from ATCC (Manassas, VA, USA). Cells were routinely grown in RPMI 1640 culture medium, supplemented with 10% fetal bovine serum, glutamine, and 100 U/mL penicillin. HCT116, HT29, MCF7, SKBR3, SK-MEL28, A549, DU145, VA-13, HEK293, and EMT6 cells were grown in flasks in RPMI 1640 fresh culture medium with supplements at 37 °C and 5% CO2. Cells were grown as monolayer cultures, and the cells in the exponential growth phase were trypsinized and suspended in the supplemented RPMI 1640 medium.
(§2) To evaluate the cytotoxicity of the compounds, we placed cells in (20–30) × 10^3 cells/mL concentrations in 96-well culture plates for 24 h. Cells were counted after treatment with Trypan blue solution (0.4%). They were then exposed to two different concentrations of compounds 16–30 (50–100 µM) dilutions in pre-incubated cells at 37 °C for 72 h. In control wells with untreated cells, only (DMSO + PBS) was added. Cell viability was measured by the standard MTT test. The stock solutions of each compound were prepared in DMSO following by preparation of serial dilutions in PBS.
(§3) The absorbance was measured at 540 nm using a Multiskan™ FC microplate photometer and the Skanlt software 6.1 RE for microplate reader, both from Thermo Scientific (Waltham, MA, USA). Experiments were carried out in triplicate; to perform the statistical analysis, more concentrations should be evaluated.

[2] = tested on: influenza virus A/Puerto Rico/8/34 (H1N1); assay: Antiviral (cytoprotective) activity in MDCK cells, MTT; type: cell-based; conditions: H1N1; infected MDCK cells, m.o.i. 0.01, 48 h, 50% cell protection; read-out: IC50
[3] = Initial cytotoxicity testing (MTT test), VA-13; type: cell-based, human; conditions: human healthy cells, MTT, 72 h, two concentrations 50–100 µM
Protocol: as §1, §2, §3

A549 = assay: Initial cytotoxicity testing (MTT test), A549; type: cell-based, human; conditions: Homo sapiens, A549, 72 h, read-out: cytotoxicity A549
Protocol: as §1, §2, §3

DU145 = assay: Initial cytotoxicity testing (MTT test), DU145; type: cell-based, human; conditions: Homo sapiens, DU-145, 72 h, read-out: cytotoxicity DU145
Protocol: as §1, §2, §3

HEK293 = assay: Initial cytotoxicity testing (MTT test), HEK293; type: cell-based, human; conditions: Homo sapiens, HEK293; normal cells, initial testing
Protocol: as §1, §2, §3

VA-13 = assay: Initial cytotoxicity testing (MTT test), VA-13; type: cell-based, human; conditions: Homo sapiens, VA-13; normal cells, initial testing
Protocol: as §1, §2, §3

SMILES	CC50 at 48 h (in vitro) [µM]	IC50 at 72 h [1] [µM]	IC50 [2] [µM]	IC50 at 72 h [3] [µM]	IC50 (A549) [µM]	IC50 (DU145) [µM]	IC50 (HEK293) [µM]	IC50 (VA-13) [µM]
COc1ccc(C2=NO[C@]3(CC[C@@H]4C(c5ccc(OC)cc5)=NO[C@@]4(C)CC[C@@H]4[C@@H]3CC4(C)C)C2)cc1 [Compound 26, (3aR,6R,6aS,8aR,10aS)-3,3′-Bis(4-methoxyphenyl)-8,8,10a-trimethyl-3a,4,5,6a,7,8,8a,9,10,10a-decahydro-4′H-spiro[cyclobuta [5,6]cyclonona [1,2-d]isoxazole-6,5′-isoxazole]]	> 652	> 50	> 652	> 50	> 50	> 50		
C/C1=C\CC[C@@]2(CC(c3ccc(Cl)cc3)=NO2)[C@H]2CC(C)(C)[C@@H]2CC1 [Compound 16a, (1S,2R,9R,E)-3′-(4-Chlorophenyl)-6,10,10-trimethyl-4′H-spiro[bicyclo [7.2.0]undecane-2,5′-isoxazol]-5-ene]	125 ± 6.5	> 50	9.8 ± 1.3	> 50	> 50	> 50		
C/C1=C\CC[C@@]2(CC(c3ccccc3)=NN2c2ccccc2)[C@H]2CC(C)(C)[C@@H]2CC1 [Compound 22a, (1S,2R,9R,E)-6,10,10-Trimethyl-2′,5′-diphenyl-2′,4′-dihydrospiro[bicyclo [7.2.0]undecane-2,3′-pyrazol]-5-ene]	170 ± 12.1	50 to 100	72.7 ± 9.2	50 to 100	> 50	> 50	50 to 100	50 to 100
CC1=CCCC2(CC(c3cc(Br)ccc3O)=NO2)C2CC(C)(C)C2CC1 [Compound 18a, 4-Bromo-2-((1S,2R,9R,E)-6,10,10-trimethyl-4′H-spiro[bicyclo [7.2.0]undecane-2,5′-isoxazol]-5-en-3′-yl)phenol]	25.1 ± 1.8	> 50	4.78 ± 0.6	> 50	> 50	> 50		
COc1cccc(OC)c1C1=NN(c2c(Cl)cc(Cl)cc2Cl)[C@]2(CC[C@H]3C(c4c(OC)cccc4OC)=NN(c4c(Cl)cc(Cl)cc4Cl)[C@]3(C)CC[C@@H]3[C@@H]2CC3(C)C)C1 [Compound 30, (3aR,6R,6aS,8aR,10aR)-3,5′-Bis(2,6-dimethoxyphenyl)-8,8,10a-trimethyl-1,2′-bis(2,4,6-trichlorophenyl)-2′,3a,4,4′,5,6a,7,8,8a,9,10,10a-dodecahydro-1H-spiro[cyclobuta [6,7]cyclonona [1,2-c]pyrazole-6,3′-pyrazole]]	> 330	> 50	71 ± 8.8	> 50	> 50	> 50		
CC1(C)C[C@H]2[C@H]1CC[C@@]1(C)ON=C(Br)[C@@H]1CC[C@@]21CC(Br)=NO1 [Compound 28, (3aR,6R,6aS,8aR,10aR)-3,3′-Dibromo-8,8,10a-trimethyl-3a,4,5,6a,7,8,8a,9,10,10a-decahydro-4′H-spiro[cyclobuta [5,6]cyclonona [1,2-d]isoxazole-6,5′-isoxazole]]	13.8 ± 1.2	50 to 100	> 8.7	50 to 100	> 50	> 50	50 to 100	50 to 100
C=C1CC[C@H]2C(Br)=NO[C@]2(C)CC[C@@H]2[C@@H]1CC2(C)C [Compound 19b, (3aR,6aS,8aR,10aR)-3-bromo-8,8,10a-trimethyl-6-methylene-3a,5,6,6a,7,8,8a,9,10,10a-decahydro-4H-cyclobuta [5,6]cyclonona [1,2-d]isoxazole]	44.2 ± 3.6		> 33.7					
C=C1CC[C@@H]2C(C)=NN(c3ccccc3)[C@@]2(C)CC[C@@H]2[C@@H]1CC2(C)C [Compound 21b, (3aS,6aS,8aR,10aS)-3,8,8,10a-tetramethyl-6-methylene-1-phenyl-1,3a,4,5,6,6a,7,8,8a,9,10,10a-dodecahydrocyclobuta [6,7]cyclonona [1,2-c]pyrazole]	375 ± 15.6	> 50	> 297	> 50	> 50	> 50		
C=C1CC[C@H]2C(c3ccccc3)=NN(c3ccccc3)[C@]2(C)CC[C@@H]2[C@@H]1CC2(C)C [Compound 22b, (3aR,6aS,8aR,10aR)-8,8,10a-trimethyl-6-methylene-1,3-diphenyl-1,3a,4,5,6,6a,7,8,8a,9,10,10a-dodecahydrocyclobuta [6,7]cyclonona [1,2-c]pyrazole]	25.1 ± 1.6	< 50	> 9.28	< 50	> 50	> 50	50 to 100	50 to 100
C/C1=C\CC[C@@]2(CC(Br)=NO2)[C@H]2CC(C)(C)[C@@H]2CC1 [Compound 19a, (1S,2R,9R,E)-3′-Bromo-6,10,10-trimethyl-4′H-spiro[bicyclo [7.2.0]undecane-2,5′-isoxazol]-5-ene]	19.6 ± 1.1	> 50	> 12.3	> 50	> 50	> 50		
C=C1CC[C@H]2C(c3cc(Br)ccc3O)=NO[C@]2(C)CC[C@@H]2[C@@H]1CC2(C)C [Compound 18b, 4-bromo-2-((3aS,6aS,8aR,10aR)-8,8,10a-trimethyl-6-methylene-3a,5,6,6a,7,8,8a,9,10,10a-decahydro-4H-cyclobuta [5,6]cyclonona [1,2-d]isoxazol-3-yl)phenol]		50 to 100		50 to 100	> 50	> 50	50 to 100	50 to 100
CC1(C)C[C@H]2[C@H]1CC[C@]1(C)[C@@H](CC[C@@]23CC(c2ccccc2)=NN3c2ccccc2)C(c2ccccc2)=NN1c1ccccc1 [Compound 29, (3aR,6R,6aS,8aR,10aR)-8,8,10a-trimethyl-1,2′,3,5′-tetraphenyl-2′,3a,4,4′,5,6a,7,8,8a,9,10,10a-Dodecahydro-1H-spiro[cyclobuta [6,7]cyclonona [1,2-c]pyrazole-6,3′-pyrazole]]	> 506	> 50	102 ± 12.6	> 50	> 50	> 50		
C=C1CC[C@H]2C(c3c(OC)cccc3OC)=NN(c3c(Cl)cc(Cl)cc3Cl)[C@]2(C)CC[C@@H]2[C@@H]1CC2(C)C [Compound 23b, (3aR,6aS,8aR,10aR)-3-(2,6-dimethoxyphenyl)-8,8,10a-trimethyl-6-methylene-1-(2,4,6-trichlorophenyl)-1,3a,4,5,6,6a,7,8,8a,9,10,10a-dodecahydrocyclobuta [6,7]cyclonona [1,2-c]pyrazole]	> 535	> 50	178 ± 20.1	> 50	> 50	> 50		
C=C1CC[C@@H]2C(c3ccc(Cl)cc3)=NO[C@@]2(C)CC[C@@H]2[C@@H]1CC2(C)C [Compound 16b, (3aR,6aS,8aR,10aS)-3-(4-chlorophenyl)-8,8,10a-trimethyl-6-methylene-3a,5,6,6a,7,8,8a,9,10,10a-decahydro-4H-cyclobuta [5,6]cyclonona [1,2-d]isoxazole]	20.2 ± 1.9	> 50	16.8 ± 2.2	> 50	> 50	> 50		
